Our source for the TGI values is PubChem BioAssay (NCI).

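A five-concentration, 48-hour dose response in 96-well plates underlies each endpoint, interpolated linearly between surrounding concentrations. At the TGI there is no net growth.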 Some results are limits rather than exact numbers.

Test systems include A498 renal; OVCAR-4 ovarian; PC-3 prostate.
Common to all, as to experiment: growth of human tumour cells (NCI), 48 h

`Cc1oc2nc(N(C)C)n3nnnc3c2c1C`: the TGI in the assay on A498 renal and in the assay on OVCAR-4 ovarian was greater than 100 µM each time.
With `C[C@@H]1C[C@H](O)[C@]2(O)O[C@@H]3C[C@@]4(C=O)[C@@H](CC=C5[C@@H]4CC[C@]4(C)[C@@H](C6=CC(=O)OC6)CC[C@]54O)C[C@H]3O[C@@H]2O1`, the TGI was 0.0627 µM in the assay on A498 renal and less than 0.0169 µM with OVCAR-4 ovarian.
With `Cc1nc2cc(C(F)(F)F)ccc2[nH]c1=O`, the TGI in the assay with A498 renal, in the assay with PC-3 prostate and in the assay with OVCAR-4 ovarian was greater than 100 µM each time.
`Cc1nc(Cl)c(CBr)c(Cl)n1`: the figures for the TGI with A498 renal, in the assay with PC-3 prostate and in the assay on OVCAR-4 ovarian were 24.7 µM, 3.13 µM and 3.56 µM, respectively.
As for `C[C@]12CC/C(=N\O)C=C1CC[C@@H]1[C@@H]2CC[C@]2(C)C(=N/O)/C(=C/c3cccnc3)C[C@@H]12`, the TGI in the assay on A498 renal was 44.4 µM; in the assay with PC-3 prostate, greater than 100 µM; with OVCAR-4 ovarian, 65.3 µM.
With `N#CSCc1cccc(Nc2cc(=O)[nH]c(=O)[nH]2)c1`, the TGI in the assay on A498 renal, in the assay with PC-3 prostate and with OVCAR-4 ovarian was greater than 100 µM each time.
Consider `COC(c1ccc(C(C)(C)C)cc1)(c1ccc(C(C)(C)C)cc1)c1cc(C(O)(c2cc(C(OC)(c3ccc(C(C)(C)C)cc3)c3ccc(C(C)(C)C)cc3)c(C)cc2C)c2cc(C(OC)(c3ccc(C(C)(C)C)cc3)c3ccc(C(C)(C)C)cc3)c(C)cc2C)c(C)cc1C`, for which the TGI in the assay on A498 renal, in the assay with PC-3 prostate and with OVCAR-4 ovarian was greater than 100 µM throughout.
`COc1ccc2c(c1)C(=O)c1ccccc1C2`: the TGI in the assay with A498 renal, with PC-3 prostate and in the assay with OVCAR-4 ovarian was greater than 100 µM in each case.
For `O=c1nc2c(c(-c3cccc(Cl)c3)[nH]1)COC/C2=C\c1cccc(Cl)c1`, the TGI in the assay with A498 renal, in the assay with PC-3 prostate and with OVCAR-4 ovarian was greater than 100 µM each time.
As for `CC(C)/C(Cl)=N\OC(=O)NNc1ccccc1`, the TGI in the assay on A498 renal, with PC-3 prostate and with OVCAR-4 ovarian was greater than 100 µM throughout.
As for `CC1=CC=CC(C)(C)CC1(O[Si](C)(C)C)C(F)(F)F` (centres undefined), the TGI in the assay with A498 renal, in the assay on PC-3 prostate and in the assay with OVCAR-4 ovarian was greater than 100 µM each time.
For `CN(O)C(=O)Cc1ccc(OCc2cccc(Cl)c2)cc1`, the TGI with A498 renal is 94.3 µM; in the assay with PC-3 prostate, greater than 100 µM; with OVCAR-4 ovarian, greater than 100 µM.
Turning to `CN(C)c1ccc(/C(Br)=C2\OC(=O)c3ccccc32)cc1`, the TGI with A498 renal, in the assay on PC-3 prostate and in the assay with OVCAR-4 ovarian was greater than 100 µM throughout.
On to `CN1C(=O)CN(NC(=O)C2=C(O)c3ccc(Br)cc3S(=O)(=O)N2)C1=S`, for which the TGI with A498 renal, with PC-3 prostate and in the assay on OVCAR-4 ovarian was greater than 100 µM throughout.
For the compound `O=C1CC(c2ccc([N+](=O)[O-])cc2)C2(C(=O)NC(=S)NC2=O)C(c2ccc([N+](=O)[O-])cc2)C1` (centres undefined), the TGI in the assay with A498 renal is 85 µM; in the assay with PC-3 prostate, greater than 100 µM; with OVCAR-4 ovarian it was greater than 100 µM.
Take `O=C1OC[C@@H]2Cc3c([nH]c4ccccc34)[C@@H](c3ccc(O)cc3)N12`: the TGI was greater than 81 µM in the assay with A498 renal, greater than 100 µM in the assay with PC-3 prostate and greater than 86.4 µM with OVCAR-4 ovarian.
With `Nc1ncnc2c1ncn2C(=O)NC12CC3CC(CC(C3)C1)C2`, the TGI with A498 renal, in the assay with PC-3 prostate and in the assay on OVCAR-4 ovarian was greater than 100 µM throughout.
Regarding `CC1=C2c3ccccc3N(C(=O)/C=C/C(=O)O)[C@H]2[C@H]2C(=O)OC(=O)[C@H]2C1`, the TGI in the assay on A498 renal, in the assay on PC-3 prostate and in the assay on OVCAR-4 ovarian was greater than 10 µM each time.
For the compound `CC1=CC(=O)N(n2c(C)n[nH]c2=O)C1=O`, the TGI with A498 renal, with PC-3 prostate and in the assay with OVCAR-4 ovarian was greater than 100 µM each time.
Regarding `CCN(CCCN(CC)C(=O)N[C@@H](Cc1ccccc1)C(=O)NC)C(=O)N[C@@H](Cc1ccccc1)C(=O)NC`, the TGI in the assay with A498 renal, in the assay on PC-3 prostate and in the assay on OVCAR-4 ovarian was greater than 100 µM each time.
With `CN1CCN(C(=S)N(C)C(=O)c2ccc(Cl)cc2)CC1`, the TGI in the assay with OVCAR-4 ovarian is greater than 100 µM.
As to `CCOP(=O)(OCC)/C(F)=C/c1ccccc1`, the TGI in the assay with A498 renal, with PC-3 prostate and with OVCAR-4 ovarian was greater than 100 µM throughout.
`CC(C)(CO)N1C(=O)c2ccccc2C1(O)c1ccc(Cl)cc1` (centres undefined): the TGI in the assay with PC-3 prostate and with OVCAR-4 ovarian was greater than 100 µM each time.
As to `C(=Nc1ccc(-c2nc3ccccc3s2)cc1)c1ccco1`, the TGI is 99.3 µM in the assay on A498 renal, greater than 100 µM in the assay on PC-3 prostate and greater than 100 µM in the assay on OVCAR-4 ovarian.
Consider `Cc1cccc(N(CCC#N)S(=O)(=O)c2ccccc2)c1`, for which the TGI in the assay on A498 renal, in the assay on PC-3 prostate and with OVCAR-4 ovarian was greater than 100 µM in each case.
As for `c1ccc2c(c1)CCCN1CCc3ccccc3C21` (centres undefined), the TGI with A498 renal, in the assay with PC-3 prostate and in the assay on OVCAR-4 ovarian was greater than 100 µM throughout.
On to `CO/N=C1/c2sccc2[C@H](NC(=O)CNC(=O)OC(C)(C)C)[C@@H]1O`, for which the TGI with A498 renal, in the assay on PC-3 prostate and in the assay with OVCAR-4 ovarian was greater than 100 µM throughout.
Consider `COC(=O)C1CC(C=[N+](C)C)=C(SC)N1` (centres undefined), for which the TGI with A498 renal, in the assay on PC-3 prostate and in the assay on OVCAR-4 ovarian was greater than 100 µM in each case.
Turning to `CN1CN(c2ccccc2)C2(CCN(CCCC3(c4cccs4)OCCO3)CC2)C1=O`, the TGI in the assay on A498 renal, with PC-3 prostate and in the assay with OVCAR-4 ovarian was greater than 100 µM throughout.
For `Cc1cc(O)cc(O)c1N=Nc1ccc([N+](=O)[O-])cc1`, the TGI is 50.9 µM in the assay on A498 renal, greater than 100 µM in the assay with PC-3 prostate and 57 µM with OVCAR-4 ovarian.
Turning to `CCOC(=O)c1c(SCCN2CCCC2)n(-c2ccccc2)c(=S)n(-c2ccccc2)c1=O`, the results for the TGI with A498 renal, in the assay with PC-3 prostate and with OVCAR-4 ovarian were 22.5 µM, 3.14 µM and 27 µM, respectively.
As for `O=c1c2cc(I)ccc2[nH]c(=S)n1Cc1ccccc1`, the TGI was 54.3 µM with A498 renal, greater than 100 µM with PC-3 prostate and greater than 100 µM in the assay with OVCAR-4 ovarian.
For `Cc1nc2ccc([N+](=O)[O-])cc2c(=O)n1C(=S)Nc1cccc(Cl)c1`, the results for the TGI in the assay on A498 renal, in the assay with PC-3 prostate and in the assay on OVCAR-4 ovarian were 45.9 µM, 54.1 µM and greater than 100 µM, respectively.
For the compound `COc1cccc(-c2nc(-c3cnccn3)n(Cc3ccccc3)n2)c1`, the TGI in the assay with PC-3 prostate and in the assay on OVCAR-4 ovarian was greater than 100 µM in each case.
With `O=C(/C=C/c1cccs1)c1ccc(Cl)cc1`, the TGI with A498 renal and in the assay on PC-3 prostate was greater than 100 µM each time.
Take `Cc1cccc(C[C@@]2(SCc3ccccc3)C(C)(C)[C@@H]3CC[C@@]2(C)C3)n1`: the TGI with A498 renal was 28.6 µM; with PC-3 prostate, 35.7 µM.
For `N#Cc1c(OCCF)c2ccccc2n2c1nc1ccccc12`, the TGI in the assay on A498 renal is greater than 100 µM; in the assay with PC-3 prostate, greater than 100 µM; with OVCAR-4 ovarian, 92 µM.
Regarding `O=C1/C(=C/c2ccc([N+](=O)[O-])cc2)CNC/C1=C\c1ccc([N+](=O)[O-])cc1`, the results for the TGI in the assay with A498 renal, in the assay with PC-3 prostate and with OVCAR-4 ovarian were 37.3 µM, 21.7 µM and greater than 50.9 µM, respectively.
In the case of `O=C1/C(=C/c2ccc(F)cc2)CNC/C1=C\c1ccc(F)cc1`, the figures for the TGI in the assay with A498 renal, in the assay with PC-3 prostate and with OVCAR-4 ovarian were 4.33 µM, 4.41 µM and greater than 36.8 µM, respectively.
On to `C/C(=N/NC(=S)Nc1cccc(C)c1)c1ccccn1`, for which the TGI with A498 renal came out at 3.54 µM; with PC-3 prostate, 7.68 µM; with OVCAR-4 ovarian, 8.93 µM.
`CC1CC(C#N)=C2NCCCCN2C1=O` (centres undefined): the TGI in the assay with PC-3 prostate and with OVCAR-4 ovarian was greater than 100 µM each time.
As for `CCOc1ccc(N=C/C=C(\Cl)c2ccc3ccccc3c2)cc1`, the TGI in the assay with A498 renal was greater than 94.5 µM; with PC-3 prostate, 36 µM; with OVCAR-4 ovarian, 26.3 µM.
In the case of `O=C(O)c1ccc(NS(=O)(=O)Cc2ccccc2)cc1`, the TGI in the assay on A498 renal, with PC-3 prostate and in the assay with OVCAR-4 ovarian was greater than 100 µM each time.
As to `O=C1/C(=C/c2ccc(Br)s2)NC(=S)N1CN1CCOCC1`, the TGI in the assay on A498 renal, with PC-3 prostate and in the assay on OVCAR-4 ovarian was greater than 100 µM each time.
Take `CC(=O)/C(=C/n1c(=S)sc2ccccc21)C(=O)Nc1ccccc1C`: the TGI in the assay with A498 renal and with OVCAR-4 ovarian was greater than 100 µM each time.
On to `Cc1ccc(C2=Nc3c(c(C)nn3-c3ccccc3)N=C(C(=O)O)C2)cc1`, for which the TGI in the assay on A498 renal, in the assay on PC-3 prostate and in the assay on OVCAR-4 ovarian was greater than 10 µM in each case.
For the compound `CCOC(=O)C1CC(O)C(=O)N1C` (centres undefined), the TGI in the assay on PC-3 prostate and in the assay on OVCAR-4 ovarian was greater than 100 µM in each case.
`COc1cccc(C2c3cc4c(cc3OC(N3CCCC3)C2C)OCO4)c1OC` (centres undefined) had a TGI in the assay on PC-3 prostate of 27.3 µM.
`CCOC(=O)c1c(N)n(-c2ccccc2)c(=S)n(-c2ccccc2)c1=O`: the TGI with OVCAR-4 ovarian is greater than 100 µM.
With `CC(=O)CC(=O)c1cc2c(=O)oc(C)cc2oc1=O`, the TGI in the assay on PC-3 prostate and in the assay with OVCAR-4 ovarian was greater than 37.5 µM throughout.
